US20250241894A1, “TREATMENT OF MENTAL DISORDERS” (GH RESEARCH IRELAND LIMITED, priority 2022, published 2025)

How the values were obtained:
[1] = tested on: patients with treatment-resistant major depressive disorder (TRD); test: Phase 1/2 clinical trial of inhaled 5-MeO-DMT in TRD: Part A single dose 12 mg or 18 mg; Part B individualized dosing regimen (IDR) 6, 12, 18 mg in a single day
Description: Patients were assigned to different groups. In the context of the present invention, the group who received a single, 12 mg dose and the group who underwent an intra-day individualized dosing regimen (IDR) that allowed for multiple, escalating doses (6 mg, 12 mg and 18 mg) within a single day, driven by the intensity of the patient-reported psychedelic experience are of interest.
This trial was designed in two parts. Part A was an open-label, single-arm, single-dose Phase 1 trial with two dose levels (12 mg (n=4) and 18 mg (n=4)). […] The primary endpoint of Part B was to assess the effects on the severity of depression, as assessed by the proportion of patients in remission on day seven after dosing, defined as a MADRS total score of less than or equal to 10.

[2] = Pharmacokinetics of 5-MeO-DMT and bufotenine after a single inhaled dose; assay type: in vivo, human
Description: Blood samples were obtained at 1; 2; 4; 7; 10; 15; 20; 30; 45 min and 1; 1.5; 2; 3; 4 hours after administration.
PK parameters were generated by algebraic analysis of the concentration versus time plots for each individual. The analysis was carried out using the software Phoenix WinNonlin 6.3.

[3] = tested on: Escherichia coli (WP2 uvrA pKM101); test: Bacterial mutation test with and without S-9; assay type: cell-based; conditions: up to 5000 μg/plate, absence and presence of S-9
Description: (§1) These conditions included treatments at concentrations up to 5000 μg/plate (the maximum recommended concentration according to current regulatory guidelines), in the absence and in the presence of a rat liver metabolic activation system (S-9).

[4] = tested on: Salmonella typhimurium (TA98, TA100, TA1535 and TA1537); test: Bacterial mutation test with and without S-9; assay type: cell-based; conditions: up to 5000 μg/plate, absence and presence of S-9
Description: as §1

[5] = 12 mg n=4, 2 hours, baseline 16

Structure (SMILES): COc1ccc2[nH]cc(CCN(C)C)c2c1 [5-MeO-DMT]
- MADRS Suicidal Thoughts improvement ([1]; 12 mg n=4, 2 hours, baseline 8): 5 points
- MADRS Inner Tension improvement ([1]; 12 mg n=4, 2 hours, baseline 13): 11 points
- MADRS Concentration Difficulties improvement [1, 5]: 9 points
- MADRS Inability to Feel improvement [1, 5]: 7 points
- MADRS Lassitude improvement [1, 5]: 6 points
- MADRS Pessimistic Thoughts improvement [1, 5]: 8 points
- BPRS Blunted Affect improvement ([1]; 12 mg n=4, 3 hours, baseline 11): 3 points
- BPRS Emotional Withdrawal improvement ([1]; 12 mg n=4, 3 hours, baseline 13): 2 points
- BPRS Tension improvement ([1]; 12 mg n=4, 3 hours, baseline 14): 5 points
- BPRS Guilt Feelings improvement ([1]; 12 mg n=4, 3 hours, baseline 18): 9 points
- BPRS Anxiety improvement ([1]; 12 mg n=4, 3 hours, baseline 25): 14 points
- MADRS Suicidal Thoughts improvement ([1]; 12 mg n=4, Day 1, baseline 8): 3 points
- BPRS Blunted Affect improvement ([1]; 12 mg n=4, Day 1, baseline 11): 5 points
- MADRS Reduced Sleep improvement ([1]; 12 mg n=4, Day 1, baseline 12): 2 points
- BPRS Emotional Withdrawal improvement ([1]; 12 mg n=4, Day 1, baseline 13): 5 points
- MADRS Inner Tension improvement ([1]; 12 mg n=4, Day 1, baseline 13): 10 points
- BPRS Tension improvement ([1]; 12 mg n=4, Day 1, baseline 14): 8 points
- MADRS Concentration Difficulties improvement ([1]; 12 mg n=4, Day 1, baseline 16): 14 points
- MADRS Inability to Feel improvement ([1]; 12 mg n=4, Day 1, baseline 16): 15 points
- MADRS Lassitude improvement ([1]; 12 mg n=4, Day 1, baseline 16): 16 points
- MADRS Pessimistic Thoughts improvement ([1]; 12 mg n=4, Day 1, baseline 16): 9 points
- BPRS Guilt Feelings improvement ([1]; 12 mg n=4, Day 1, baseline 18): 13 points
- BPRS Anxiety improvement ([1]; 12 mg n=4, Day 1, baseline 25): 19 points
- MADRS Suicidal Thoughts improvement ([1]; 12 mg n=4, Day 7, baseline 8): 1 points
- BPRS Blunted Affect improvement ([1]; 12 mg n=4, Day 7, baseline 11): 6 points
- MADRS Reduced Sleep improvement ([1]; 12 mg n=4, Day 7, baseline 12): 6 points
- BPRS Emotional Withdrawal improvement ([1]; 12 mg n=4, Day 7, baseline 13): 7 points
- MADRS Inner Tension improvement ([1]; 12 mg n=4, Day 7, baseline 13): 8 points
- BPRS Tension improvement ([1]; 12 mg n=4, Day 7, baseline 14): 8 points
- MADRS Concentration Difficulties improvement ([1]; 12 mg n=4, Day 7, baseline 16): 13 points
- MADRS Inability to Feel improvement ([1]; 12 mg n=4, Day 7, baseline 16): 15 points
- MADRS Lassitude improvement ([1]; 12 mg n=4, Day 7, baseline 16): 13 points
- MADRS Pessimistic Thoughts improvement ([1]; 12 mg n=4, Day 7, baseline 16): 8 points
- BPRS Guilt Feelings improvement ([1]; 12 mg n=4, Day 7, baseline 18): 13 points
- BPRS Anxiety improvement ([1]; 12 mg n=4, Day 7, baseline 25): 19 points
- MADRS Suicidal Thoughts improvement ([1]; IDR n=8, 2 hours, baseline 11): 8 points
- MADRS Inner Tension improvement ([1]; IDR n=8, 2 hours, baseline 26): 15 points
- MADRS Lassitude improvement ([1]; IDR n=8, 2 hours, baseline 27): 17 points
- MADRS Pessimistic Thoughts improvement ([1]; IDR n=8, 2 hours, baseline 28): 21 points
- MADRS Concentration Difficulties improvement ([1]; IDR n=8, 2 hours, baseline 30): 19 points
- MADRS Inability to Feel improvement ([1]; IDR n=8, 2 hours, baseline 36): 24 points
- BPRS Emotional Withdrawal improvement ([1]; IDR n=8, 3 hours, baseline 13): 5 points
- BPRS Blunted Affect improvement ([1]; IDR n=8, 3 hours, baseline 15): 4 points
- BPRS Tension improvement ([1]; IDR n=8, 3 hours, baseline 16): 5 points
- BPRS Guilt Feelings improvement ([1]; IDR n=8, 3 hours, baseline 34): 20 points
- BPRS Anxiety improvement ([1]; IDR n=8, 3 hours, baseline 37): 18 points
- MADRS Suicidal Thoughts improvement ([1]; IDR n=8, Day 1, baseline 11): 10 points
- BPRS Emotional Withdrawal improvement ([1]; IDR n=8, Day 1, baseline 13): 5 points
- BPRS Blunted Affect improvement ([1]; IDR n=8, Day 1, baseline 15): 7 points
- BPRS Tension improvement ([1]; IDR n=8, Day 1, baseline 16): 5 points
- MADRS Reduced Sleep improvement ([1]; IDR n=8, Day 1, baseline 25): 13 points
- MADRS Inner Tension improvement ([1]; IDR n=8, Day 1, baseline 26): 20 points
- MADRS Lassitude improvement ([1]; IDR n=8, Day 1, baseline 27): 22 points
- MADRS Pessimistic Thoughts improvement ([1]; IDR n=8, Day 1, baseline 28): 24 points
- MADRS Concentration Difficulties improvement ([1]; IDR n=8, Day 1, baseline 30): 29 points
- BPRS Guilt Feelings improvement ([1]; IDR n=8, Day 1, baseline 34): 23 points
- MADRS Inability to Feel improvement ([1]; IDR n=8, Day 1, baseline 36): 34 points
- BPRS Anxiety improvement ([1]; IDR n=8, Day 1, baseline 37): 21 points
- MADRS Suicidal Thoughts improvement ([1]; IDR n=8, Day 7, baseline 11): 8 points
- BPRS Emotional Withdrawal improvement ([1]; IDR n=8, Day 7, baseline 13): 5 points
- BPRS Blunted Affect improvement ([1]; IDR n=8, Day 7, baseline 15): 7 points
- BPRS Tension improvement ([1]; IDR n=8, Day 7, baseline 16): 6 points
- MADRS Reduced Sleep improvement ([1]; IDR n=8, Day 7, baseline 25): 16 points
- MADRS Inner Tension improvement ([1]; IDR n=8, Day 7, baseline 26): 14 points
- MADRS Lassitude improvement ([1]; IDR n=8, Day 7, baseline 27): 24 points
- MADRS Pessimistic Thoughts improvement ([1]; IDR n=8, Day 7, baseline 28): 25 points
- MADRS Concentration Difficulties improvement ([1]; IDR n=8, Day 7, baseline 30): 21 points
- BPRS Guilt Feelings improvement ([1]; IDR n=8, Day 7, baseline 34): 24 points
- MADRS Inability to Feel improvement ([1]; IDR n=8, Day 7, baseline 36): 30 points
- BPRS Anxiety improvement ([1]; IDR n=8, Day 7, baseline 37): 20 points
- SAEs ([1]; Part A 12 mg and 18 mg): No SAEs
- Severity and outcome of ADRs ([1]; Part A 12 mg and 18 mg): mild and resolved spontaneously
- Proportion of patients in MADRS remission ([1]; Part A 12 mg n=4, day seven): 50%
- Further patients with MADRS clinical response ([1]; Part A 18 mg n=4, day seven): 25%
- Proportion of patients in MADRS remission ([1]; Part A 18 mg n=4, day seven): 25%
- Outcome of ADRs ([1]; Part B IDR): resolved spontaneously
- SAEs ([1]; Part B IDR): No SAEs
- Proportion of patients in MADRS remission (total score <=10) ([1]; Part B IDR n=8, day seven): 87.5%
- Detectability in plasma ([2]; after 3 hours, 6, 12, 18 mg): no longer detectable
- Accumulation upon repeated administration ([2]; within a time frame of 1 to 4 hours): No accumulation
- Mutation induction [3]: did not induce mutation
- Mutation induction [4]: did not induce mutation
